Results reported in US20060258581A1, “Methods and composition for derepressions of IAP-inhibited caspase” (priority 2001, published 2006).
Where two headings read alike, the source gives them in different places. Where a SMILES comes first, the peptide text is derived from it. [ ]: non-standard residue; d: D form. The star is where a group is joined. Phe(4-Cl) = N[C@@H](Cc1ccc(Cl)cc1)C(=O)O; 2Nal = N[C@@H](Cc1ccc2ccccc2c1)C(=O)O; Fmoc = O=C(OCC1c2ccccc2-c2ccccc21)*; 2Thi = N[C@@H](Cc1cccs1)C(=O)O

Tests used:
XIAP-inhibited caspase-3 = target: T1, XIAP-inhibited caspase-3 (Homo sapiens, UniProt P98170); assay: IAP derepression assay: Ac-DEVD-AFC hydrolysis by caspase-3 in the presence of GST-XIAP; type: biochemical; conditions: for activity in the caspase derepression assay using full length XIAP: in words; for Activity* (relative caspase-3 activity: Vmax in the presence of compound / Vmax of controls having caspase-3 and XIAP): XIAP derepression assay
T1 construct: in a caspase derepression assay using full length XIAP; made in house; host or cells: bacteria
T1 sequence (P98170 whole entry): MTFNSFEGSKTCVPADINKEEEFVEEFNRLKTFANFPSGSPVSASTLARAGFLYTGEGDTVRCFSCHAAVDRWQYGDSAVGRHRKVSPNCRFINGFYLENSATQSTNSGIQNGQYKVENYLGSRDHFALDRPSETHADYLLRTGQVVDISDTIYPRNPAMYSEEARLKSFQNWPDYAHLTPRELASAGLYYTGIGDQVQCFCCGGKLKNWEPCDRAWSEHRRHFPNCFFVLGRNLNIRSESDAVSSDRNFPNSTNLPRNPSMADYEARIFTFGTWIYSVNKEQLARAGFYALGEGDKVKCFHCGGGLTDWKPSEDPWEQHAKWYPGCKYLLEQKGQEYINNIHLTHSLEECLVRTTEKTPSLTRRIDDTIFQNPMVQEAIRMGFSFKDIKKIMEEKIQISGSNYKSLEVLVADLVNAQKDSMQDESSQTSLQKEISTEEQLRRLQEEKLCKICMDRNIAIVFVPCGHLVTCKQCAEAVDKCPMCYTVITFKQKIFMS
Method: The ratio of Vmax for hydrolysis of Ac-DEVD-AFC in the presence and absence of the candidate mixture was calculated and used to identify those that contain an agent that derepresses an IAP-inhibited caspase.
Each mixture was aliquoted in a 25 microliter volume and in duplicate to a well of a 96 well microtiter plate. […] Fluorescence of liberated AFC was immediately detected from each well for 30 minutes at 30 second intervals. The Vmax for hydrolysis of AC-DEVD-AFC from each well was measured using the softmax software package.

XIAP = XIAP (Homo sapiens, UniProt P98170); assay: SMAC binding/competition assay: biotinylated SMAC 7-mer on NeutrAvidin plates, GST-XIAP detected by anti-GST; conditions: in words
XIAP, sequence (P98170 whole entry): as above
Method: Peptide compounds containing unnatural amino acids in the 792 series, 792-33 and 792-35 (see FIG. 12 and 20 and Example XI), and an active compound in the TPI 1332 series, TPI 1332-69, were tested for binding activity in the SMAC binding assay as described above in Example X. For this assay, biotinylated SMAC 7-mer peptide (50 ng) was bound to 96 well plates coated with NeutrAvidin (Pierce, Rockford, Ill.) at 1 mg/ml in 100 μl per well of 50 mM HEPES pH 7.4, 100 mM NaCl 1 mM EDTA, 10% sucrose, 0.1% CHAPS, 10 mM DTT.

[1] = tested on: ALVA31 prostate cancer cells; assay: ALVA31 prostate cancer cell viability (XTT dye-reduction, trypan blue); type: cell-based; conditions: 24 hrs; for cell viability, compound alone: peptides 40 μM, VP-16 100 μM; for tumor cell killing, combination with VP-16: peptide 40 μM with VP-16 100 μM
Method: The in vivo effects of TPI 792-33 or TPI 792-35, either individually or in combination with the cytotoxic anticancer drug VP-16 (etoposide), on derepression of XIAP-inhibited caspase and viability of ALVA31 cells was determined as follows. ALVA31 prostate cancer cells were seeded onto 96 well plates (10^4 cells/well) in 100 μL RPMI containing 2.5% fetal bovine serum (FBS). […] After another 24 hrs-incubation, cell viability was measured by the XTT dye-reduction assay (Roche, Molecular Biochemicals; Indianapolis, Ind.) and trypan blue dye exclusion assay.

full length XIAP = full length XIAP (Homo sapiens, UniProt P98170); assay: Potency of IAP antagonists in vitro (Table VIII; caspase derepression / SMAC competition with full length XIAP); conditions: for Relative Potency (fold versus SMAC peptide): SMAC AVPI tetrapeptide = 1.0; for EC50: amount of compound necessary to restore caspase-3 activity to 50% of Vmax
full length XIAP, sequence (P98170 whole entry): as above

Jurkat leukemia cells = assay: Jurkat leukemia cell death, Annexin V/propidium iodide flow cytometry; type: cell-based; conditions: for cells killed: one day treatment
Method: The following assay was used to test the ability of individual compounds from the TPI 1396 and TPI 1391 libraries to induce apoptosis of cultured tumor cell lines. Each of the compounds listed in Table IX was individually added to Jurkat leukemia cells (6.25×10^5 cells/mL) in RPMI containing 2.5% FBS at various concentrations for 20 hours. After incubation, cells were washed and stained with FITC-conjugated Annexin V antibody and propidium iodide (Biovision; Mountain View, Calif.). Cells were incubated for 20 minutes at room temperature in the dark and fluorescence was measured by flow cytometry (FACScan, Immunocytometry system; Becton-Dickinson; San Jose, Calif.). Cells staining positive for Annexin V were deemed non-viable.
The TPI I396-34 and TPI 1391-28 compounds were further tested as set forth below.

[2] = tested on: normal bone marrow mononuclear cells; assay: Normal bone marrow mononuclear cells versus Jurkat, Annexin V, 20 hours; type: cell-based; conditions: 5 μM
Method: After incubation, cells were washed, stained with FITC-conjugated Annexin V antibody and propidium iodide, and fluorescence measured by flow cytometry as described above.

Relative Potency (fold versus SMAC peptide) (full length XIAP) | SMILES | % nonviable cells (Jurkat leukemia cells; 1 µM) [%] | % nonviable cells (Jurkat leukemia cells; 10 µM) [%] | % nonviable cells (Jurkat leukemia cells; 25 µM) [%] | % nonviable cells (Jurkat leukemia cells; 50 µM) [%] | further results
5.2 | N[C@@H](Cc1cccs1)C(=O)N[C@@H](Cc1ccc2ccccc2c1)C(=O)N[C@@H](Cc1ccc(Cl)cc1)C(=O)N[C@@H](CCCCNC(=O)OCC1c2ccccc2-c2ccccc21)C(=O)O [TPI 792-33, L-3-(2-thienyl)-alanyl-L-(2-naphthyl)-alanyl-L-p-chloro-phenylalanyl-L-(e-fluorenylmethyloxycarbonyl)-lysine] (H-[2Thi][2Nal][Phe(4-Cl)]K(Fmoc)-OH) |  |  |  |  | LC (lowest concentration with a ratio of 2 or higher in the derepression assay) (XIAP-inhibited caspase-3): 0.4 micrograms per milliliter; activity in the caspase derepression assay using full length XIAP (XIAP-inhibited caspase-3): activity; LC (lowest concentration with a ratio of 2 or higher in the derepression assay) (XIAP-inhibited caspase-3; tested at 0.4, 2, 10 and 50): 0.4 µg/mL; competition with XIAP binding to the SMAC peptide (SMAC competition assay) (XIAP): activity; cell viability, compound alone [1]: reduced viability of these prostate cancer cells by nearly half; tumor cell killing, combination with VP-16 [1]: more potent tumor cell killing compared to VP-16 alone
2.5 | N[C@@H](Cc1cccs1)C(=O)N[C@@H](Cc1ccc2ccccc2c1)C(=O)N[C@H](CCCCNC(=O)OCC1c2ccccc2-c2ccccc21)C(=O)N[C@@H](CCCCNC(=O)OCC1c2ccccc2-c2ccccc21)C(=O)O [TPI 792-35, L-3-(2-thienyl)-alanyl, L-(2-naphthyl)-alanyl-D-(e-fluorenylmethyloxycarbonyl)-lysyl-L-(e-fluorenylmethyloxycarbonyl)-lysine] (H-[2Thi][2Nal][dK](Fmoc)K(Fmoc)-OH) |  |  |  |  | activity in the caspase derepression assay using full length XIAP (XIAP-inhibited caspase-3): activity; LC (lowest concentration with a ratio of 2 or higher in the derepression assay) (XIAP-inhibited caspase-3; tested at 0.4, 2, 10 and 50): 2 µg/mL; competition with XIAP binding to the SMAC peptide (SMAC competition assay) (XIAP): activity; cell viability, compound alone [1]: reduced viability of these prostate cancer cells by nearly half; tumor cell killing, combination with VP-16 [1]: more potent tumor cell killing compared to VP-16 alone
 | CCCC[C@@H](CNCc1ccccc1)N1C[C@@H](CC(C)C)N(CC(C)c2ccc(CC(C)C)cc2)C(=O)C1=O (stereo partly drawn) [TPI 1391-1] | 18 | 20 | 69 | 91 | 
 | CCCC[C@@H](CNCc1ccccc1)N1C[C@@H](CC(C)C)N(CCc2cccc(C(F)(F)F)c2)C(=O)C1=O [TPI 1391-4] | 20 | 48 | 90 | 86 | 
 | CCCC[C@@H](CNCc1ccccc1)N1C[C@@H](CC(C)C)N(CC2CCC(C(C)(C)C)CC2)C(=O)C1=O (stereo partly drawn) [TPI 1391-5] | 17 | 36 | 88 | 88 | 
 | CCCC[C@H](CNCc1ccccc1)N1C[C@@H](CC(C)C)N(CC2CCC(C(C)(C)C)CC2)C(=O)C1=O (stereo partly drawn) [TPI 1391-17] | 13 | 45 | 88 | 91 | % nonviable cells (Jurkat leukemia cells; 5 µM): 25%
3.7 | CCCCCCCN1C(=O)C(=O)N([C@H](CCCC)CNCc2ccccc2)C[C@@H]1Cc1ccc2ccccc2c1 [TPI 1391-21] | 16 | 44 | 91 | 94 | EC50 (full length XIAP): 33.6 µM
 | CC(C)Cc1ccc(C(C)CN2C(=O)C(=O)N([C@H](CNCc3ccccc3)Cc3ccc4ccccc4c3)C[C@H]2CC(C)C)cc1 (stereo partly drawn) [TPI 1391-25] | 16 | 60 | 90 | 87 | 
5 | CC(C)C[C@@H]1CN([C@H](CNCc2ccccc2)Cc2ccc3ccccc3c2)C(=O)C(=O)N1CCc1cccc(C(F)(F)F)c1 [TPI 1391-28] | 19 | 55 | 87 | 91 | EC50 (full length XIAP): 25.1 µM; cells killed (Jurkat leukemia cells; 5 μM): about 45%; cells killed (Jurkat leukemia cells; 8 μM): ~80%; EC50 (Jurkat leukemia cells; one-day exposure, read-out: EC50 for killing Jurkat leukemia cells): ~6.5 µM; toxicity to normal bone marrow cells [2]: little toxicity
3.3 | O=C1C(=O)N([C@H](CNCc2ccccc2)Cc2ccc3ccccc3c2)C[C@H](Cc2ccc3ccccc3c2)N1CCc1cccc(C(F)(F)F)c1 [TPI 1391-34] |  |  |  |  | EC50 (full length XIAP): 39.4 µM
 | COc1ccc(CCN(CCCC[C@@H](CN(C(=O)Nc2ccccc2)[C@@H](CNC(=O)Nc2ccccc2)CC2CCCCC2)N(C)C(=O)Nc2ccccc2)C(=O)Nc2ccccc2)cc1 [TPI 1396-25] |  |  |  |  | Activity* (relative caspase-3 activity: Vmax in the presence of compound / Vmax of controls having caspase-3 and XIAP) (XIAP-inhibited caspase-3): 1.6
 | COc1ccc(CCN(C(=O)Nc2ccccc2)[C@H](Cc2ccccc2)CN(C(=O)Nc2ccccc2)[C@@H](CNC(=O)Nc2ccccc2)CC2CCCCC2)cc1 [TPI 1396-31] |  |  |  |  | Activity* (relative caspase-3 activity: Vmax in the presence of compound / Vmax of controls having caspase-3 and XIAP) (XIAP-inhibited caspase-3): 1.3
